Test results published in US9850283B2, “Macrocyclic inhibitors of the PD-1/PD-L1 and CD80(B7-1)/PD-L1 protein/protein interactions” (BRISTOL-MYERS SQUIBB COMPANY, priority 2013, dated 2017).
pIC50: −log10 of the molar value. Like-named read-outs stand apart in the source and are kept apart here. Positions of bridges follow the written chain, without caps; N, C: chain ends. Non-standard residues stand in square brackets, D forms with d. Residues, ends and D or L forms follow the SMILES beside them. Phe(3,4,5-F3) = N[C@@H](Cc1cc(F)c(F)c(F)c1)C(=O)O; Phe(4-CF3) = N[C@@H](Cc1ccc(C(F)(F)F)cc1)C(=O)O; Trp(5-OH) = N[C@@H](Cc1c[nH]c2ccc(O)cc12)C(=O)O; Phe(3,5-F2) = N[C@@H](Cc1cc(F)cc(F)c1)C(=O)O; Phe(4-CH2NH2) = NCc1ccc(C[C@H](N)C(=O)O)cc1; Phe(4-Cl) = N[C@@H](Cc1ccc(Cl)cc1)C(=O)O; Phe(4-NH2) = Nc1ccc(C[C@H](N)C(=O)O)cc1; Phe(4-Me) = Cc1ccc(C[C@H](N)C(=O)O)cc1; Bta = N[C@@H](Cc1csc2ccccc12)C(=O)O; NMeF = CN[C@@H](Cc1ccccc1)C(=O)O; NMeNle = CCCC[C@H](NC)C(=O)O; Sar = CNCC(=O)O

Assays:
[1] = target: T1, Human PD-L1/PD-1 (Homo sapiens, UniProt Q9NZQ7); test: HTRF PD-1-Ig/PD-L1-His binding assay (human PD-L1)
T1 construct: made in house; host or cells: HEK293T
T1 sequence (Q9NZQ7 with tags, fused parts or gaps): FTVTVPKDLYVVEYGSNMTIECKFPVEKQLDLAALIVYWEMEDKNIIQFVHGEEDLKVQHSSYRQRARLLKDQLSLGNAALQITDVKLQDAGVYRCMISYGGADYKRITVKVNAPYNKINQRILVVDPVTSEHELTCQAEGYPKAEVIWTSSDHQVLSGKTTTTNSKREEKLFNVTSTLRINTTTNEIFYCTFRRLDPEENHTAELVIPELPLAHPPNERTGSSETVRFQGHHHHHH
Method in brief: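 Interaction of Fc-tagged soluble PD-1 with His-tagged soluble PD-L1 is monitored by time-resolved FRET. Donor is europium cryptate anti-Ig (1 nM final) and acceptor is APC anti-His (20 nM final). Assay buffer is dPBS with 0.1% BSA and 0.05% Tween-20.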

[2] = target: T2, LK35.2-hPD-L1 cells / PE-labeled PD-1-Ig (Homo sapiens, UniProt Q9NZQ7); test: LK35.2-hPD-L1 cell binding high-content screening assay; format: cell-based; settings: cell line of CBA not given (LK35.2-hPD-L1 or 293T-hPD-L1)
T2 construct: expressed in transfected cells; host or cells: LK35.2 mouse B cell line
T2 sequence (Q9NZQ7 19-290): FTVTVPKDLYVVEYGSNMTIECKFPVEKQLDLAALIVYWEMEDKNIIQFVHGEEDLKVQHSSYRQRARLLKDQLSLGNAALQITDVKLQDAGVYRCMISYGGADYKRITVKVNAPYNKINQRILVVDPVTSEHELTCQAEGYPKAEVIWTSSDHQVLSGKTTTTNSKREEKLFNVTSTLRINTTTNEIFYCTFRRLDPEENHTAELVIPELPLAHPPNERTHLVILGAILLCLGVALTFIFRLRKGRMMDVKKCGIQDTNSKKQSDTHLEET
Method in brief: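 Readout: high-content imaging of PE-PD-1-Ig bound to LK35.2-hPD-L1 cells. Cells plated overnight (RPMI/10% FCS); compound + 1 nM PE-PD-1-Ig, 1 h, 37 °C; 3× dPBS wash before imaging.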

[3] = cluster symbol, read-out: HTRF IC50 cluster
[4] = cluster symbol, read-out: CBA IC50 cluster

Structure (SMILES)	pIC50 [1, 3]	pIC50 [2, 4]	pIC50 ([1]; read-out: HTRF IC50 value)	pIC50 ([2]; read-out: CBA IC50 value)
CCCC[C@H]1C(=O)N(C)CC(=O)N[C@@H](CC(=O)O)C(=O)N[C@@H](C(C)C)C(=O)N[C@@H](Cc2ccc(C)cc2)C(=O)N[C@@H](Cc2ccc(O)cc2)C(=O)N(C)CC(=O)N[C@@H](Cc2c[nH]c3ccccc23)C(=O)N[C@@H](Cc2ccc(O)cc2)C(=O)N[C@@H](CC(C)C)C(=O)N[C@H](C(=O)NCC(N)=O)CSCC(=O)N[C@@H](Cc2ccccc2)C(=O)N(C)[C@@H](Cc2ccccc2)C(=O)N1C [Example 3135] ({CH2CO}-F[NMeF][NMeNle][Sar]DV[Phe(4-Me)]Y[Sar]WYLCG-NH2; thioether N-13)	< 7.52	< 7.13	–	–
CC(C)C[C@@H]1NC(=O)[C@H](Cc2ccc(O)cc2)NC(=O)[C@H](Cc2c[nH]c3ccccc23)NC(=O)CN(C)C(=O)[C@H](Cc2ccc(O)cc2)NC(=O)[C@H](Cc2ccccc2)N(C)C(=O)[C@H](C(C)C)NC(=O)[C@H](CC(=O)O)NC(=O)CN(C)C(=O)[C@H](CC(C)C)N(C)C(=O)[C@H](Cc2ccccc2)N(C)C(=O)[C@H](Cc2ccccc2)NC(=O)CSC[C@@H](C(=O)NCC(N)=O)NC1=O [Example 3136] (HELM PEPTIDE1{[O=C(C[*:3])[*:2]].F.[meF].[meL].[Sar].D.V.[meF].Y.[Sar].W.Y.L.C.G.[am]}$PEPTIDE1,PEPTIDE1,1:R3-14:R3$$$V2.0)	7.52 to 8.17	7.14 to 8.32	–	–
CCCC[C@H]1C(=O)N(C)CC(=O)N[C@@H](CC(=O)O)C(=O)N[C@@H](C(C)C)C(=O)N(C)[C@@H](Cc2ccccc2)C(=O)N[C@@H](Cc2ccc(O)cc2)C(=O)N(C)CC(=O)N[C@@H](Cc2c[nH]c3ccccc23)C(=O)N[C@@H](Cc2ccc(C(F)(F)F)cc2)C(=O)N[C@@H](CC(C)C)C(=O)N[C@H](C(=O)NCC(N)=O)CSCC(=O)N[C@@H](Cc2ccccc2)C(=O)N(C)[C@@H](Cc2ccccc2)C(=O)N1C [Example 3138] ({CH2CO}-F[NMeF][NMeNle][Sar]DV[NMeF]Y[Sar]W[Phe(4-CF3)]LCG-NH2; thioether N-13)	< 7.52	< 7.13	–	–
CCCC[C@H]1C(=O)N(C)CC(=O)N[C@@H](CC(=O)O)C(=O)N[C@@H](C(C)C)C(=O)N(C)[C@@H](Cc2ccccc2)C(=O)N[C@@H](Cc2ccc(N)cc2)C(=O)N(C)CC(=O)N[C@@H](Cc2c[nH]c3ccccc23)C(=O)N[C@@H](Cc2ccc(O)cc2)C(=O)N[C@@H](CC(C)C)C(=O)N[C@H](C(=O)NCC(N)=O)CSCC(=O)N[C@@H](Cc2ccccc2)C(=O)N(C)[C@@H](Cc2ccccc2)C(=O)N1C [Example 3139] ({CH2CO}-F[NMeF][NMeNle][Sar]DV[NMeF][Phe(4-NH2)][Sar]WYLCG-NH2; thioether N-13)	7.52 to 8.17	7.14 to 8.32	–	–
CCCC[C@H]1C(=O)N(C)CC(=O)N[C@@H](CC(=O)O)C(=O)N[C@@H](C(C)C)C(=O)N(C)[C@@H](Cc2ccccc2)C(=O)N[C@@H](Cc2ccc(O)cc2)C(=O)N(C)CC(=O)N[C@@H](Cc2c[nH]c3ccccc23)C(=O)N[C@@H](Cc2ccc(N)cc2)C(=O)N[C@@H](CC(C)C)C(=O)N[C@H](C(=O)NCC(N)=O)CSCC(=O)N[C@@H](Cc2ccccc2)C(=O)N(C)[C@@H](Cc2ccccc2)C(=O)N1C [Example 3140] ({CH2CO}-F[NMeF][NMeNle][Sar]DV[NMeF]Y[Sar]W[Phe(4-NH2)]LCG-NH2; thioether N-13)	7.52 to 8.17	7.14 to 8.32	–	–
CCCC[C@H]1C(=O)N(C)CC(=O)N[C@@H](CC(=O)O)C(=O)N[C@@H](C(C)C)C(=O)N(C)[C@@H](Cc2ccccc2)C(=O)N[C@@H](Cc2ccc(CN)cc2)C(=O)N(C)CC(=O)N[C@@H](Cc2csc3ccccc23)C(=O)N[C@@H](Cc2ccc(O)cc2)C(=O)N[C@@H](CC(C)C)C(=O)N[C@H](C(=O)NCC(N)=O)CSCC(=O)N[C@@H](Cc2ccccc2)C(=O)N(C)[C@@H](Cc2ccccc2)C(=O)N1C [Example 3141] ({CH2CO}-F[NMeF][NMeNle][Sar]DV[NMeF][Phe(4-CH2NH2)][Sar][Bta]YLCG-NH2; thioether N-13)	7.52 to 8.17	7.14 to 8.32	–	–
CC[C@H](C)[C@H]1C(=O)N(C)CC(=O)N[C@@H](CC(=O)O)C(=O)N[C@@H](C(C)C)C(=O)N(C)[C@@H](Cc2ccccc2)C(=O)N[C@@H](Cc2ccc(O)cc2)C(=O)N(C)CC(=O)N[C@@H](Cc2c[nH]c3ccccc23)C(=O)N[C@@H](Cc2ccc(O)cc2)C(=O)N[C@@H](CC(C)C)C(=O)N[C@H](C(=O)NCC(N)=O)CSCC(=O)N[C@@H](Cc2ccccc2)C(=O)N(C)[C@@H](Cc2ccccc2)C(=O)N1C [Example 3142] (HELM PEPTIDE1{[O=C(C[*:3])[*:2]].F.[meF].[meI].[Sar].D.V.[meF].Y.[Sar].W.Y.L.C.G.[am]}$PEPTIDE1,PEPTIDE1,1:R3-14:R3$$$V2.0)	7.52 to 8.17	7.14 to 8.32	–	–
CCCC[C@H]1C(=O)N(C)CC(=O)N[C@@H](CC(=O)O)C(=O)N[C@@H](C(C)C)C(=O)N(C)[C@@H](Cc2ccccc2)C(=O)N[C@@H](Cc2ccc(O)cc2)C(=O)N(C)CC(=O)N[C@@H](Cc2c[nH]c3ccccc23)C(=O)N[C@@H](Cc2ccc(O)cc2)C(=O)N[C@@H](CC(C)C)C(=O)N[C@H](C(=O)NCC(N)=O)CSCC(=O)N[C@@H](Cc2cc(F)cc(F)c2)C(=O)N(C)[C@@H](Cc2ccccc2)C(=O)N1C [Example 3143] ({CH2CO}-[Phe(3,5-F2)][NMeF][NMeNle][Sar]DV[NMeF]Y[Sar]WYLCG-NH2; thioether N-13)	7.52 to 8.17	8.33 to 9.80	–	–
CCCC[C@H]1C(=O)N(C)CC(=O)N[C@@H](CC(=O)O)C(=O)N[C@@H](C(C)C)C(=O)N(C)[C@@H](Cc2ccccc2)C(=O)N[C@@H](Cc2ccc(O)cc2)C(=O)N(C)CC(=O)N[C@@H](Cc2c[nH]c3ccccc23)C(=O)N[C@@H](Cc2ccc(O)cc2)C(=O)N[C@@H](CC(C)C)C(=O)N[C@H](C(=O)NCC(N)=O)CSCC(=O)N[C@@H](Cc2cc(F)c(F)c(F)c2)C(=O)N(C)[C@@H](Cc2ccccc2)C(=O)N1C [Example 3144] ({CH2CO}-[Phe(3,4,5-F3)][NMeF][NMeNle][Sar]DV[NMeF]Y[Sar]WYLCG-NH2; thioether N-13)	7.52 to 8.17	8.33 to 9.80	–	–
CCCC[C@H]1C(=O)N(C)CC(=O)N[C@@H](CC(=O)O)C(=O)N[C@@H](C(C)C)C(=O)N[C@@H](Cc2ccc(Cl)cc2)C(=O)N[C@@H](Cc2ccc(O)cc2)C(=O)N(C)CC(=O)N[C@@H](Cc2c[nH]c3ccccc23)C(=O)N[C@@H](Cc2ccc(O)cc2)C(=O)N[C@@H](CC(C)C)C(=O)N[C@H](C(=O)NCC(N)=O)CSCC(=O)N[C@@H](Cc2ccccc2)C(=O)N(C)[C@@H](Cc2ccccc2)C(=O)N1C [Example 3145] ({CH2CO}-F[NMeF][NMeNle][Sar]DV[Phe(4-Cl)]Y[Sar]WYLCG-NH2; thioether N-13)	< 7.52	< 7.13	–	–
CCCC[C@H]1C(=O)N(C)CC(=O)N[C@@H](CC)C(=O)N[C@@H](C(C)C)C(=O)N(C)[C@@H](Cc2ccccc2)C(=O)N[C@@H](Cc2ccc(O)cc2)C(=O)N(C)CC(=O)N[C@@H](Cc2c[nH]c3ccccc23)C(=O)N[C@@H](Cc2ccc(O)cc2)C(=O)N[C@@H](CC(C)C)C(=O)N[C@H](C(=O)NCC(N)=O)CSCC(=O)N[C@@H](Cc2ccccc2)C(=O)N(C)[C@@H](Cc2ccccc2)C(=O)N1C [Example 3146] (HELM PEPTIDE1{[O=C(C[*:3])[*:2]].F.[meF].[CCCC[C@@H](C(=O)[*:2])N(C)[*:1]].[Sar].[Abu].V.[meF].Y.[Sar].W.Y.L.C.G.[am]}$PEPTIDE1,PEPTIDE1,1:R3-14:R3$$$V2.0)	< 7.52	7.14 to 8.32	–	–
CCCC[C@H]1C(=O)N(C)CC(=O)N[C@@H](CC(=O)O)C(=O)N[C@@H](C(C)C)C(=O)N(C)[C@@H](Cc2ccccc2)C(=O)N[C@@H](Cc2ccc(O)cc2)C(=O)N(C)CC(=O)N[C@@H](Cc2c[nH]c3ccc(O)cc23)C(=O)N[C@@H](Cc2ccc(O)cc2)C(=O)N[C@@H](CC(C)C)C(=O)N[C@H](C(=O)NCC(N)=O)CSCC(=O)N[C@@H](Cc2ccccc2)C(=O)N(C)[C@@H](Cc2ccccc2)C(=O)N1C [Example 3147] ({CH2CO}-F[NMeF][NMeNle][Sar]DV[NMeF]Y[Sar][Trp(5-OH)]YLCG-NH2; thioether N-13)	–	–	6.12	5.76
CCCC[C@H]1C(=O)N(C)CC(=O)N[C@@H](CC(=O)O)C(=O)N[C@@H](C(C)C)C(=O)N(C)[C@@H](Cc2ccccc2)C(=O)N[C@@H](Cc2c[nH]c3ccc(O)cc23)C(=O)N(C)CC(=O)N[C@@H](Cc2c[nH]c3ccccc23)C(=O)N[C@@H](Cc2ccc(O)cc2)C(=O)N[C@@H](CC(C)C)C(=O)N[C@H](C(=O)NCC(N)=O)CSCC(=O)N[C@@H](Cc2ccccc2)C(=O)N(C)[C@@H](Cc2ccccc2)C(=O)N1C [Example 3148] ({CH2CO}-F[NMeF][NMeNle][Sar]DV[NMeF][Trp(5-OH)][Sar]WYLCG-NH2; thioether N-13)	7.52 to 8.17	7.14 to 8.32	–	–
CCCC[C@H]1C(=O)N(C)CC(=O)N[C@@H](CC(=O)O)C(=O)N[C@@H]([C@@H](C)CC)C(=O)N(C)[C@@H](Cc2ccccc2)C(=O)N[C@@H](Cc2ccc(O)cc2)C(=O)N(C)CC(=O)N[C@@H](Cc2c[nH]c3ccccc23)C(=O)N[C@@H](Cc2ccc(O)cc2)C(=O)N[C@@H](CC(C)C)C(=O)N[C@H](C(=O)NCC(N)=O)CSCC(=O)N[C@@H](Cc2ccccc2)C(=O)N(C)[C@@H](Cc2ccccc2)C(=O)N1C [Example 3149] (HELM PEPTIDE1{[O=C(C[*:3])[*:2]].F.[meF].[CCCC[C@@H](C(=O)[*:2])N(C)[*:1]].[Sar].D.I.[meF].Y.[Sar].W.Y.L.C.G.[am]}$PEPTIDE1,PEPTIDE1,1:R3-14:R3$$$V2.0)	–	–	7.52	8.05
